Results: article PMC9598926, “Design and Synthesis of (Z)-5-(Substituted benzylidene)-3-cyclohexyl-2-thioxothiazolidin-4-one Analogues as Anti-Tyrosinase and Antioxidant Compounds: In Vitro and In Silico Insights” (Antioxidants, 2022)

Key:
Type in all cases: cell-based, murine
[1] = target: T1, B16F10 cellular tyrosinase (Mus musculus, UniProt P11344); test: Cellular tyrosinase activity assay in α–MSH plus IBMX stimulated B16F10 cells; conditions: 5, 10, 20 µM, 72 h
T1 construct: B16F10 murine melanoma cells were used as a cellular tyrosinase source; endogenous in cells; host or cells: B16F10 murine melanoma cells (ATCC)
T1 sequence (P11344 19-533): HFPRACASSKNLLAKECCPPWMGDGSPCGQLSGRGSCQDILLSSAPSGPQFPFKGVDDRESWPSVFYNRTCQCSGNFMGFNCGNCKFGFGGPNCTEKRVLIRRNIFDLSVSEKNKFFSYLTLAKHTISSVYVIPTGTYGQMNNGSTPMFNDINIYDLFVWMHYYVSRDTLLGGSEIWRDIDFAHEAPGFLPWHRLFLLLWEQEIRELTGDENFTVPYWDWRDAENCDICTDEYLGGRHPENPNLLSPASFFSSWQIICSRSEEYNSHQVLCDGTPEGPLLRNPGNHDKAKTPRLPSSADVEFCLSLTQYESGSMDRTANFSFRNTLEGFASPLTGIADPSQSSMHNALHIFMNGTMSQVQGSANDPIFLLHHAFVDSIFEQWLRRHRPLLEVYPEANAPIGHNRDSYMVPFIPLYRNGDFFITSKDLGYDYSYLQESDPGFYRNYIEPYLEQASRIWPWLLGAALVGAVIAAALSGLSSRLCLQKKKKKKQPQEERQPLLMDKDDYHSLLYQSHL
Procedure: Cellular Tyrosinase Activity Assay
Briefly, cultured B16F10 cells were seeded in 6-well culture plate at 1 × 10^4 cells/well and incubated for 12 h under cell culture conditions to allow them to adhere to well bottoms. […] Cells were then washed with PBS twice and exposed to a lysis buffer solution (100 µL) comprised of 5 µL of 20% Triton X-100, 5 µL of 2 mM PMSF, and 90 µL of 50 mM phosphate buffer in pH 6.5. Lysates were kept at −80 °C for 30 min, defrosted, and centrifuged at 12,000 rpm for 30 min at 4 °C. Supernatants (80 µL) were mixed with 20 µL of 2 mg/mL of L-dopa in a 96-well plate, and absorbance of each well was measured at 475 nm every 10 min for 1 h at 37 °C using a microplate reader (VersaMax®, Molecular Devices, Sunnyvale, CA, USA). Experiments were performed independently 3 times.
Cellular tyrosinase activities were determined by measuring optical densities at 475 nm.

tyrosinase = test: Western blot of cytosolic tyrosinase in α–MSH/IBMX stimulated B16F10 cells; conditions: 5, 10, 20 µM
Procedure: 2.15. Extraction of Cytosolic and Nuclear Proteins from Cells
Western blotting was used to determine tyrosinase and MITF protein levels. Briefly, B16F10 cells were seeded in 60 mm culture dishes in the presence or absence of α–MSH (1 µM) plus IBMX (200 µM) with or without analog 3 (5, 10, and 20 µM for final concentrations) for 24 h, washed twice with ice-cold PBS and centrifuged for 10 min at 12,000× g. Cell pellets were suspended in 10 mM Tris (pH 8.0) containing 0.1% NP-40, 1 mM DTT, 1.5 mM MgCl2, 1 mM PMSF, and protease inhibitors (GenDEPOT, Barker, TX, USA), incubated on ice for 15 min, and centrifuged for 10 min at 12,000× g at 4 °C. Supernatants were used as cytosolic fractions. […] The protein concentrations were determined using a bicinchoninic acid (BCA)™ assay kit (Pierce, Rockford, IL, USA). […]
Lysed protein samples from cells were boiled for 10 min in sample-loading buffer (0.1% bromophenol blue, 25% glycerol, 60 mM Tris-HCl (pH 6.8), 2% SDS, and 0.5% β-mercaptoethanol) at a volume ratio of 1:4. […] Immunoreactive proteins were detected using the enhanced chemiluminescence (ECL) detection reagent in the SuperSignal® West Pico Chemiluminescent Substrate kit (Advansta, San Jose, CA, USA). Western blot bands were visualized using a Davinch-Chemi imager™ (Davinch-K, Seoul, Korea), and quantification was conducted by densitometric analysis using CS analyzer software ver. […]

B16F10 cells = test: Melanin content analysis in α–MSH plus IBMX stimulated B16F10 cells
Procedure: 2.10. Melanin Content Analysis Melanin content assays were performed to determine the effects of analog 3 on cellular melanin formation, as previously described with minor modification. […] Briefly, cultured B16F10 cells were seeded in 6-well culture plates at 1 × 10^4 cells/well and incubated for 12 h under culture conditions to allow them to adhere to well bottoms. […] Cells were then washed twice with PBS and detached from wells by incubation with Trypsin/EDTA. After centrifugation, detached cell pellets were dissolved in 1N–NaOH solution (100 µL), incubated for 1 h at 60 °C, and mixed to solubilize melanin released by cells. The ability of analog 3 to inhibit melanin production was determined by measuring well optical densities (ODs) at 405 nm using a microplate reader (VersaMax®, Molecular Devices, Sunnyvale, CA, USA). Melanin contents were calculated by dividing the ODs of samples by the control OD. Experiments were conducted independently 3 times. […] Thus, B16F10 cells were treated with analog 3 (0, 5, 10, or 20 µM) for 1 h and then stimulated with α–MSH (1 µM) plus IBMX (200 µM) for 72 h. Melanin contents were assessed by measuring optical densities at 405 nm.

Compound: O=C1/C(=C/c2ccc(O)cc2O)SC(=S)N1C1CCCCC1 [Analog 3, (Z)-3-Cyclohexyl-5-(2,4-dihydroxybenzylidene)-2-thioxothiazolidin-4-one]
- effect on α–MSH plus IBMX induced increase in cellular tyrosinase activity [1]: significantly and dose-dependently reduced
- effect on α–MSH/IBMX-induced increase in tyrosinase expression (protein, cytosol) (tyrosinase): significantly and concentration-dependently reduced
- effect on α–MSH/IBMX-induced melanin contents at 5 µM (B16F10 cells; 5 µM, compared with kojic acid 20 µM): greater effect than kojic acid at 20 µM
- effect on α–MSH/IBMX-induced melanin contents at 20 µM (B16F10 cells; 20 µM, 72 h): to the non-treated control level
- effect on α–MSH/IBMX-induced melanin content increases (B16F10 cells; 5, 10, 20 µM, 72 h): significantly and dose-dependently reduced
